The text below walks through data of patent US12594276B2, “Inhibitors of human immunodeficiency virus replication” (ViiV Healthcare UK (No.5) Limited, priority 2024, dated 2026).

A value given as a limit tells only on which side of the number the result lay.

In data set [1] the test system is recombinant NL4-3 virus (nef section replaced with Renilla luciferase gene) in MT-2 cells. Put plainly: HIV cell culture assay (antiviral activity, luciferase readout). Format: cell-based. Particulars: Renilla, NL43, MT-2 cells infected for 4-5 days with recombinant NL4-3 Renilla luciferase virus. In a few lines:
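MT-2 cells were infected for 4-5 days with reporter virus made by transfecting the recombinant NL4-3 proviral clone into 293T cells, in the presence of serial compound dilutions. Luciferase activity was read with a live-cell substrate. EC50 came from the exponential median effect equation, (Fa)=1/[1+(ED50/drug conc.)m].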

Data set [2] is described as follows: Compound cytotoxicity, XTT-based colorimetric assay. It counts as cell-based. Particulars: human; uninfected MT2 cells, day 4, XTT; read-out: CC50. Here is the method:
Compound cytotoxicity and the corresponding CC50 values were determined using the same protocol as described in the antiviral assay except that uninfected cells were used. Cytotoxicity was assessed on day 4 in uninfected MT2 cells by using an XTT (2,3-bis[2-Methoxy-4-nitro-5-sulfophenyl]-2H-tetrazolium-5-carboxyanilide inner salt)-based colorimetric assay (Sigma-Aldrich, St Louis, Mo).
Background: Tetrazolium assays rely on reduction of a dye to a coloured formazan, in cell work by metabolically active cells.

The EC50 is the concentration needed to bring the measured effect to its halfway point. A word on the CC50: it is the concentration giving 50% cytotoxicity. For `CS(=O)(=O)Nc1nn(CCN2CCC(F)(F)CC2)c2c(-n3c([C@H](Cc4cc(F)cc(F)c4)NC(=O)Cn4nc(C(F)F)c5c4C(F)(F)[C@@H]4C[C@H]54)nc4nc(C5CCC(F)(F)CC5)cc(C(F)F)c4c3=O)ccc(Cl)c12` (atropisomer, axis not shown; (P)) [Example 149, N-[(1S)-1-[(3P)-3-{4-chloro-1-[2-(4,4-difluoropiperidin-1-yl)ethyl]-3-methanesulfonamido-1H-indazol-7-yl}-7-(4,4-difluorocyclohexyl)-5-(difluoromethyl)-4-oxo-3H,4H-pyrido[2,3-d]pyrimidin-2-yl]-2-(3,5-difluorophenyl)ethyl]-2-[(2S,4R)-9-(difluoromethyl)-5,5-difluoro-7,8-diazatricyclo[4.3.0.0^2,^4]nona-1(6),8-dien-7-yl]acetamide], the EC50 in data set [1] came to 0.018 nM. In addition, the CC50 at 4 days in data set [2] is over 50 nM.
In the same order, the values of `COCCCn1nc(NS(C)(=O)=O)c2c(Cl)ccc(-n3c([C@H](Cc4cc(F)cc(F)c4)NC(=O)Cn4nc(C(F)F)c5c4C(F)(F)[C@@H]4C[C@H]54)nc4nc(C5CCC(F)(F)CC5)cc(CN5C[C@@H](C)O[C@@H](C)C5)c4c3=O)c21` (atropisomer, axis not shown; (P)) [Example 448, N-[(1S)-1-[(3P)-3-[4-chloro-3-methanesulfonamido-1-(3-methoxypropyl)-1H-indazol-7-yl]-7-(4,4-difluorocyclohexyl)-5-{[(2R,6S)-2,6-dimethylmorpholin-4-yl]methyl}-4-oxo-3H,4H-pyrido[2,3-d]pyrimidin-2-yl]-2-(3,5-difluorophenyl)ethyl]-2-[(2S,4R)-9-(difluoromethyl)-5,5-difluoro-7,8-diazatricyclo[4.3.0.0^2,4]nona-1(6),8-dien-7-yl]acetamide] are 0.009 nM and over 20 nM.
In the same order, the values of `C[C@@H]1CN(CCn2nc(NS(C)(=O)=O)c3c(Cl)ccc(-n4c([C@H](Cc5cc(F)cc(F)c5)NC(=O)Cn5nc(C(F)F)c6c5C(F)(F)[C@@H]5C[C@H]65)nc5nc(C6CCC(F)(F)CC6)cc(CN6C[C@@H](C)O[C@@H](C)C6)c5c4=O)c32)C[C@H](C)O1` (atropisomer, axis not shown; (P)) [Example 528, N-[(1S)-1-[(3P)-3-(4-chloro-1-{2-[(2R,6S)-2,6-dimethylmorpholin-4-yl]ethyl}-3-methanesulfonamido-1H-indazol-7-yl)-7-(4,4-difluorocyclohexyl)-5-{[(2R,6S)-2,6-dimethylmorpholin-4-yl]methyl}-4-oxo-3H,4H-pyrido[2,3-d]pyrimidin-2-yl]-2-(3,5-difluorophenyl)ethyl]-2-[(2S,4R)-9-(difluoromethyl)-5,5-difluoro-7,8-diazatricyclo[4.3.0.0^2,^4]nona-1(6),8-dien-7-yl]acetamide] are 0.006 nM and over 20 nM.
The corresponding values for `CS(=O)(=O)Nc1nn(CCN2CCCC(F)(F)C2)c2c(-n3c([C@H](Cc4cc(F)cc(F)c4)NC(=O)Cn4nc(C(F)F)c5c4C(F)(F)[C@@H]4C[C@H]54)nc4nc(C5CCC(F)(F)CC5)ccc4c3=O)ccc(Cl)c12` (atropisomer, axis not shown; (P)) [Example 168, N-[(1S)-1-[(3P)-3-{4-chloro-1-[2-(3,3-difluoropiperidin-1-yl)ethyl]-3-methanesulfonamido-1H-indazol-7-yl}-7-(4,4-difluorocyclohexyl)-4-oxo-3H,4H-pyrido[2,3-d]pyrimidin-2-yl]-2-(3,5-difluorophenyl)ethyl]-2-[(2S,4R)-9-(difluoromethyl)-5,5-difluoro-7,8-diazatricyclo[4.3.0.0^2,^4]nona-1(6),8-dien-7-yl]acetamide] are 0.018 nM and over 50 nM.
Turning to `CS(=O)(=O)Nc1nn(CCN2C[C@H](F)C[C@H](F)C2)c2c(-n3c([C@H](Cc4cc(F)cc(F)c4)NC(=O)Cn4nc(C(F)F)c5c4C(F)(F)[C@@H]4C[C@H]54)nc4nc(C5CCC(F)(F)CC5)cc(C5CC5)c4c3=O)ccc(Cl)c12` (atropisomer, axis not shown; (P)) [Example 322, N-[(1S)-1-[(3P)-3-(4-chloro-1-{2-[(3R,5S)-3,5-difluoropiperidin-1-yl]ethyl}-3-methanesulfonamido-1H-indazol-7-yl)-5-cyclopropyl-7-(4,4-difluorocyclohexyl)-4-oxo-3H,4H-pyrido[2,3-d]pyrimidin-2-yl]-2-(3,5-difluorophenyl)ethyl]-2-[(2S,4R)-9-(difluoromethyl)-5,5-difluoro-7,8-diazatricyclo[4.3.0.0^2,^4]nona-1(6),8-dien-7-yl]acetamide], the EC50 in data set [1] is 0.009 nM. Also, the CC50 at 4 days in data set [2] was over 50 nM.
As for `Cc1cc(C2(F)CCC(F)(F)CC2)nc2nc([C@H](Cc3cc(F)cc(F)c3)NC(=O)Cn3nc(C(F)F)c4c3C(F)(F)[C@@H]3C[C@H]43)n(-c3ccc(Cl)c4c(NS(C)(=O)=O)nn([C@H](C)CN5C[C@@H](C)O[C@@H](C)C5)c34)c(=O)c12` (atropisomer, axis not shown; (P)) [Example 729, N-[(1S)-1-[(3P)-3-{4-chloro-1-[(2R)-1-[(2R,6S)-2,6-dimethylmorpholin-4-yl]propan-2-yl]-3-methanesulfonamido-1H-indazol-7-yl}-5-methyl-4-oxo-7-(1,4,4-trifluorocyclohexyl)-3H,4H-pyrido[2,3-d]pyrimidin-2-yl]-2-(3,5-difluorophenyl)ethyl]-2-[(2S,4R)-9-(difluoromethyl)-5,5-difluoro-7,8-diazatricyclo[4.3.0.0^2,^4]nona-1(6),8-dien-7-yl]acetamide], the EC50 in data set [1] was 0.023 nM. The CC50 at 4 days in data set [2] was over 20 nM.
As to `Cc1cc(C2CCC(F)(F)CC2)nc2nc([C@H](Cc3cc(F)cc(F)c3)NC(=O)Cn3nc(C(F)F)c4c3C(F)(F)[C@@H]3C[C@H]43)n(-c3ccc(Cl)c4c(NS(C)(=O)=O)nn(CCOC(C)C)c34)c(=O)c12` (atropisomer, axis not shown; (P)) [Example 59, N-[(1S)-1-[(3P)-3-{4-chloro-3-methanesulfonamido-1-[2-(propan-2-yloxy)ethyl]-1H-indazol-7-yl}-7-(4,4-difluorocyclohexyl)-5-methyl-4-oxo-3H,4H-pyrido[2,3-d]pyrimidin-2-yl]-2-(3,5-difluorophenyl)ethyl]-2-[(2S,4R)-9-(difluoromethyl)-5,5-difluoro-7,8-diazatricyclo[4.3.0.0^2,^4]nona-1(6),8-dien-7-yl]acetamide], the half-maximal effective concentration (EC50) in data set [1] came to 0.011 nM. In data set [2], the CC50 at 4 days is over 50 nM.
In the same order, the values of `COCCn1nc(NS(C)(=O)=O)c2c(Cl)ccc(-n3c([C@H](Cc4cc(F)cc(F)c4)NC(=O)Cn4nc(C(F)F)c5c4C(F)(F)[C@@H]4C[C@H]54)nc4nc(C5CCC(F)(F)CC5)cc(C)c4c3=O)c21` (atropisomer, axis not shown; (P)) [Example 84, N-[(1S)-1-[(3P)-3-[4-chloro-3-methanesulfonamido-1-(2-methoxyethyl)-1H-indazol-7-yl]-7-(4,4-difluorocyclohexyl)-5-methyl-4-oxo-3H,4H-pyrido[2,3-d]pyrimidin-2-yl]-2-(3,5-difluorophenyl)ethyl]-2-[(2S,4R)-9-(difluoromethyl)-5,5-difluoro-7,8-diazatricyclo[4.3.0.0^2,^4]nona-1(6),8-dien-7-yl]acetamide] are 0.016 nM and over 50 nM.
Consider `Cc1cc(C2(F)CCC(F)(F)CC2)nc2nc([C@H](Cc3cc(F)cc(F)c3)NC(=O)Cn3nc(C(F)F)c4c3C(F)(F)[C@@H]3C[C@H]43)n(-c3ccc(Cl)c4c(NS(C)(=O)=O)nn(C[C@H](C)N5CC(C)(C)OC(C)(C)C5)c34)c(=O)c12` (atropisomer, axis not shown; (P)) [Example 717, N-[(1S)-1-[(3P)-3-{4-chloro-3-methanesulfonamido-1-[(2S)-2-(2,2,6,6-tetramethylmorpholin-4-yl)propyl]-1H-indazol-7-yl}-5-methyl-4-oxo-7-(1,4,4-trifluorocyclohexyl)-3H,4H-pyrido[2,3-d]pyrimidin-2-yl]-2-(3,5-difluorophenyl)ethyl]-2-[(2S,4R)-9-(difluoromethyl)-5,5-difluoro-7,8-diazatricyclo[4.3.0.0^2,^4]nona-1(6),8-dien-7-yl]acetamide], for which the EC50 in data set [1] was determined as 0.032 nM. In addition, the CC50 at 4 days in data set [2] was over 20 nM.
For the molecule `Cc1cc(C2CCC(F)(F)CC2)nc2nc([C@H](Cc3cc(F)cc(F)c3)NC(=O)Cn3nc(C(F)F)c4c3C(F)(F)[C@@H]3C[C@H]43)n(-c3ccc(Cl)c4c(NS(C)(=O)=O)nn(CCN5C[C@@H](F)C[C@H](F)C5)c34)c(=O)c12` (atropisomer, axis not shown; (P)) [Example 446, N-[(1S)-1-[(3P)-3-(4-chloro-1-{2-[(3S,5S)-3,5-difluoropiperidin-1-yl]ethyl}-3-methanesulfonamido-1H-indazol-7-yl)-7-(4,4-difluorocyclohexyl)-5-methyl-4-oxo-3H,4H-pyrido[2,3-d]pyrimidin-2-yl]-2-(3,5-difluorophenyl)ethyl]-2-[(2S,4R)-9-(difluoromethyl)-5,5-difluoro-7,8-diazatricyclo[4.3.0.0^2,^4]nona-1(6),8-dien-7-yl]acetamide], in data set [1], the concentration for a half-maximal effect (EC50) stood at 0.009 nM. Besides, the CC50 at 4 days in data set [2] was over 20 nM.
